Here are results for 5 compounds from EP1075467B1, “PYRAZOLE DERIVATIVES AS P-38 MAP KINASE INHIBITORS” (F. Hoffmann-La Roche AG, priority 1998, dated 1999).

The test system of assay [1] is TNF-α Production In Rats. Briefly: Inhibition of LPS-induced TNF-α production in rats, in vivo assay. The arrangement: species or system Female Sprague-Dawley rats. Conditions: dosed orally at 30 mg, LPS 50 µg/kg intraperitoneally after 30 min, serum TNF-α 1.5 h later by ELISA. The method, then:
Female Sprague-Dawley rats weighing 110-140 grams (Charles River, Hollister, CA) were acclimated for one week. Groups containing 8 […] each were dosed orally either with the test compounds dissolved in an aqueous vehicle containing 0.9% sodium chloride, 0.5% sodium carboxymethyl-cellulose, 0.4% polysorbate 80, 0.9% benzyl alcohol (CMC vehicle) or only vehicle (control group). After 30 min., the […] were injected intraperitoneally with 50 µg/kg of LPS (Sigma, St. Louis, MO).
(ELISA stands for enzyme-linked immunosorbent assay.)

Assay [2] deals with TNF-α Production In THP1 Cells. Nature of the assay: Inhibition of LPS-induced TNF-α production in THP1 cells, in vitro assay. Conditions: THP-1 cells, LPS 0.5 µg/ml, 2 h, TNF-α in supernatant by ELISA, read-out: IC50 (concentration corresponding to half-maximal reduction in 450 nm absorbance), TNF-α release. The format is cell-based, human. As to the method:
The ability of the compounds of this invention to inhibit the TNF-α release was determined using a minor modification of the methods described in Blifeld, C. et al. Transplantation, Vol. 51(2), 498-503, (1991). THP-1 cells were suspended in culture medium [RPMI (Gibco-BRL, Gailthersburg, MD) containing 15% fetal bovine serum, 0.02 mM 2-mercaptoethanol], at a concentration of 2.5 x 10^6 cells/ml and then plated in 96 well plate (0.2 ml aliquots in each well). Test compounds were dissolved in DMSO and then diluted with the culture medium such that the final DMSO concentration was 5%. 20 μl aliquots of test solution or only medium with DMSO (control) were added to each well. The cells were incubated for 30 min., at 37 °C. LPS (Sigma, St. Louis, MO) was added to the wells at a final concentration of 0.5 μg/ml, and cells were incubated for an additional 2 h. At the end of the incubation period, culture supernatants were collected and the amount of TNF-α present was determined using an ELISA assay as described below. The amount of human TNF-α present was determined by a specific trapping ELISA assay using two anti-TNF-α antibodies (2TNF-H22 and 2TNF-[…]) described in Reimund, J. M., et al. GUT. Vol. 39(5), 684-689 (1996). Polystyrene 96-well plates were coated with 50 μl per well of antibody 2TNF-H22 in PBS (10 μg/ml) and incubated in a humidified chamber at 4 °C overnight. The plates were washed with PBS and then blocked with 5% nonfat-dry milk in PBS for 1 hour at room temperature and washed with 0.1% BSA (bovine serum albumin) in PBS. TNF standards were prepared from a stock solution of human recombinant TNF-α (R&D Systems, Minneapolis, MN). The concentration of the standards in the assay began at 10 ng/ml followed by 6 half log serial dilution's. […] Optical density of the sample and the reference were read at 450 nm and 650 nm, respectively. TNF-α levels were determined from a graph relating the optical density at 450 nm to the concentration used. The IC50 value was defined as the concentration of the test compound corresponding to half-maximal reduction in 450 nm absorbance. […]

Structures can show the parent of a compound that is named as a salt. Where two headings read alike, the source gives them in different places.

With `Nc1c(C(=O)c2cccc(C#CCN3CCOCC3)c2)cnn1-c1ccc(F)cc1` [compound 3, 5-Amino-1-(4-fluorophenyl)-4-[3-{3-(morpholin-4-yl)prop-1-ynyl}benzoyl]pyrazole], in assay [1], the “% Inhibition (TNF-α content in the test group relative to the vehicle treated group)” value worked out at 96%.

Take `Nc1c(C(=O)c2cccc(CCCN3CCOCC3)c2)cnn1-c1ccc(F)cc1` [compound 6, 5-Amino-1-(4-fluorophenyl)-4-[3-(3-morpholin-4-ylpropyl)benzoyl]pyrazole hydrochloride]: the IC50 in assay [2] (Homo sapiens) stood at 1040 nM.

Consider `CNC(=O)COc1cccc(C(=O)c2cnn(-c3ccc(F)cc3)c2N)c1` [compound 34, 5-Amino-1-(4-fluorophenyl)-4-[3-(methylaminocarbonylmethyloxy)-benzoyl]pyrazole], for which the “% Inhibition (TNF-α content in the test group relative to the vehicle treated group)” value in assay [1] is reported as 75%.

Regarding `CN1CCN(C(=O)COc2cccc(C(=O)c3cnn(-c4ccc(F)cc4)c3N)c2)CC1` [compound 38], the IC50 in assay [2] came to 690 nM.

As to `Nc1c(C(=O)c2cccc(CCS(N)(=O)=O)c2)cnn1-c1ccc(F)cc1` [compound 50, 5-Amino-4-[3-(2-aminosulfonylethyl)benzoyl]-1-(4-fluorophenyl)pyrazole], the IC50 in assay [2] (Homo sapiens) stood at 510 nM.
